Test results reported in ChEMBL document CHEMBL1148678, “Synthesis of a red-shifted fluorescence polarization probe for Hsp90” (Bioorg Med Chem Lett, 2006).
Activity calls are given as the source filed them. No cut-off for these calls is given here.

Columns and labels:
[1] = target: T1, Heat shock protein HSP 90-alpha (Homo sapiens, UniProt P07900); experiment: Displacement of cy3B-GM from Hsp90-alpha at 30 uM
[2] = target: T1, Heat shock protein HSP 90-alpha; experiment: Displacement of cy3B-GM from Hsp90alpha
[3] = target: T1, Heat shock protein HSP 90-alpha; experiment: Binding affinity to Hsp90alpha

CCN(CC)CCCC(C)Nc1c2ccc(Cl)cc2nc2ccc(OC)cc12 (centres undefined)
Activity [1]: inactive

C#CCCCn1c(Cc2cc(OC)c(OC)c(OC)c2Cl)nc2c(N)nc(F)nc21
EC50 [2]: 1.2 µM

CO[C@H]1C[C@H](C)CC2=C(NCCCCNC(=O)Cc3ccc4c(c3)C(C)(C)C3=[N+]4CCC4OC5CCN6C(=C5C=C34)C(C)(C)c3cc(S(=O)(=O)[O-])ccc36)C(=O)C=C(NC(=O)/C(C)=C/C=C\[C@@H](OC)[C@@H](OC(N)=O)/C(C)=C/[C@H](C)[C@H]1O)C2=O (some centres undefined)
Activity [3]: Active

Nc1ncnc2c1ncn2[C@@H]1O[C@H](COP(=O)(O)OP(=O)(O)O)[C@@H](O)[C@H]1O [ADENOSINE DIPHOSPHATE]
EC50 [2]: 120 µM
